Experimental data taken from PubChem BioAssay (NCI).
“And” between values parts separate entries of the source, which are not always exact repeats. Equal values may be shown once.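 Results reflect a 48-hour exposure of cells in 96-well plates to compound at five concentrations. At the GI50, growth is halved. The concentration for full growth arrest is given as TGI.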

Key:
Experiment in all cases: DTP human tumour cell line panel, 48 h
786-0 renal = tested on: 786-0 renal
A498 renal = tested on: A498 renal
CCRF-CEM leukemia = tested on: CCRF-CEM leukemia
HCC-2998 colon = tested on: HCC-2998 colon
M14 melanoma = tested on: M14 melanoma
OVCAR-8 ovarian = tested on: OVCAR-8 ovarian
RXF 393 renal = tested on: RXF 393 renal
SN12C renal = tested on: SN12C renal
U251 CNS = tested on: U251 CNS
NCI-H226 lung = tested on: NCI-H226 lung

Row | Structure (SMILES) | TGI (786-0 renal) | TGI (A498 renal) [µM] | TGI (CCRF-CEM leukemia) | TGI (HCC-2998 colon) | TGI (M14 melanoma) [µM] | TGI (OVCAR-8 ovarian) | TGI (RXF 393 renal) [µM] | TGI (SN12C renal) | TGI (U251 CNS) | TGI (NCI-H226 lung) [µM] | GI50 (A498 renal) | GI50 (786-0 renal) [µM] | GI50 (CCRF-CEM leukemia) [µM] | GI50 (NCI-H226 lung) [µM] | GI50 (OVCAR-8 ovarian) [µM] | GI50 (SN12C renal) [µM] | GI50 (U251 CNS) [µM]
1 | Oc1ccc(Br)cc1C=NC1CCCCC1 | > 100 µM | > 100 | > 100 µM | > 100 µM | > 100 | > 100 µM | > 100 | 19.5 µM | > 100 µM | – | – | – | – | – | – | – | –
2 | Nc1ccc(C(=O)CC2(O)C(=O)Nc3ccccc32)cc1 (stereo not drawn) | > 100 µM | > 100 | – | – | > 100 | > 100 µM | > 100 | > 100 µM | – | > 100 | – | – | – | – | – | – | –
3 | NCCCNCc1c2ccccc2c(CNCCCN)c2ccccc12 | 36.2 µM | 76.8 | 46.6 µM | 30.9 µM | – | 33.9 µM | 35.7 | 18.5 µM | > 100 µM | – | – | – | – | – | – | – | –
4 | COC(=O)[C@@H](C)C[C@H](Cc1ccccc1)NC(=O)c1csc([C@@H](C[C@H](C(C)C)N(C)C(=O)[C@@H](NC(=O)[C@H]2CCCCN2C)c2ccc(F)cc2)OC(C)=O)n1 | 6.23 µM and 42.5 µM | > 100 | 25 µM and > 100 µM | 25 µM and > 100 µM | – | 25 µM and > 100 µM | – | 22.2 µM and 19.5 µM | 25 µM and > 100 µM | – | 0.0216 µM and 0.127 µM | – | – | – | – | – | –
5 | O=C(N/C(=C\c1cccc([N+](=O)[O-])c1)c1nc2c3c(ccc2[nH]1)C(=O)c1ccccc1C3=O)c1ccccc1 | > 100 µM | > 100 | – | – | > 100 | > 100 µM | – | > 100 µM | > 100 µM | > 100 | – | – | – | – | – | – | –
6 | OCC#Cc1ccccc1C#Cc1ccc(C#Cc2ccccc2C#CCO)cc1 | 82.6 µM | 95.7 | > 100 µM | – | – | > 100 µM | – | > 100 µM | > 100 µM | > 100 | 28.9 µM | 32 | 38.1 | 56.8 | 79.1 | 31.6 | 34
